Assay results taken from US5298509A, “Octahydronaphthoquinolizines, and methods of making and using thereof” (priority 1992, dated 1994).
“Also recorded” adds a separate entry of the source. Where two headings read alike, the source gives them in different places.

How the values were obtained:
sigma receptor = details: cited from earlier work
sham-feeding rat [1] = assay: Microstructural analysis of licking/ingestive behavior in the sham-feeding rat; assay type: in vivo; details: SKF 5 mg/kg, BMY 4 mg/kg, HAL 0.1 mg/kg, i.p.; for interlick intervals (in words): range 0-250 msec
Text: Motoric components of the ingestive behavior may be differentiated from the "rewarding", sensory components by the use of microstructural analysis, a computer-controlled device which records the time at which each animal licks, to the nearest fractional millisecond. Analysis of licking and ingestive behavior in bursts is monitored through a fixed time test such that sigma agents may influence ingestive behavior either through the motor output systems or through nigrostriatal dopamine systems. The role for sigma sites in motor output systems include those muscles which are associated with licking, biting, and swallowing.
This consists of the use of a computer-controlled device which records the time at which each animal licks, to the nearest fractional millisecond. This then allows analysis of licking and ingestive behavior in bursts through a 30-minute test.
Using this behavioral assay system, with peripheral administration of the various selective drugs, rats (N=6) received 20% sucrose during a 30-min test, such that there was no effect of the sigma agents (+)-SKF 10,047 (5 mg/kg, i.p.; SKF) or BMY 14802 (4 mg/kg, i.p.; BMY) depending upon the volume of the sucrose solution which was ingested. […] These changes are attributed to a shift in the mean of the distribution histogram of interlick intervals. […] The shift in interlick interval distribution is expected to arise from occupancy of hindbrain sigma sites, possibly in the reticular formation, which are involved in definition of the lick rate in the rat.

sham-feeding rat [2] = assay: Sucrose ingestion (sham intake) in the sham-feeding rat; assay type: in vivo; details: 20% sucrose, 30-min test, N=6; for effect on volume of sucrose solution ingested (in words): (+)-SKF 10,047 5 mg/kg i.p., BMY 14802 4 mg/kg i.p., haloperidol 0.1 mg/kg i.p.
Text: As a non-limiting example, distinguishing between sigma receptor modulation and dopamine modulation may be accomplished using a D2 distinguishing assay, such as a behavioral assay system which discriminates the effects of dopamine D2 antagonists from sigma modulators or agents. A non-limiting example of a D2 /sigma distinguishing assay system involves quantification of ingestion of sucrose in a sham-feeding rat, where dopamine plays a critical role in the mediation of this behavior. See Schneider, L. H. et al. Eur. J. Pharmacol. 186:61-70 (1990) which is entirely incorporated herein by reference. […] The principal factor which compels the animal to maintain ingestion is the sweet taste of the sucrose solution; the involvement of the ascending mesolimbic dopamine system in this effect appears to be manifested as a modulation of the hedonic potency of the orosensory event (sweet taste). […] Neurosci. Abstr. 16:1028 (1990) which references are incorporated entirely herein by reference.
Differentiation of sigma and dopamine activities are provided by a behavioral assay system which effectively discriminates the effects of dopamine D-2 antagonists from sigma agents. The assay system involves quantification of ingestion of sucrose in the sham-feeding rat.

[3] = system: sigma versus dopamine D2 receptors; details: cited from earlier work
sigma receptors [4] = assay: Sigma binding assay, (3H)-haloperidol, rat cerebellar homogenates; details: for binding to sigma sites (in words): rat cerebellar preparation
Procedure: (§1) As a non-limiting subexample, a sigma binding assay can use cerebellar tissue extracts to bind sigma receptor selectively by (^3 H)-halopendol with spiperone used to inhibit-binding to D2 receptors. […] These ligands are incubated at 30° C. with tissue (rat liver, rat cerebellum) homogenates for a 45 min period. In these assays, tissue concentrations used a range from 0.1-0.5 mg protein/mL, and radioligand concentrations range from 50 pM-10 μM. […] Filters are dried and counted for (^3 H)-activity in a liquid scintillation counter. The amount of ligand bound to the tissue receptor is measured with the aid of computer analysis of the data, using the LIGAND or an equivalent algorithm.
(§2) Radioligand binding assays were performed on the tricyclic (cis-cis) hexahydrojulolidine (HHJ), the parent tetracyclic (cis,cis) OHNQ (I-1) and 9-methoxy OHNQ (I-4), for binding to D2 and sigma receptors synthesized according to Example 1. The D2 assays were performed on bovine striatal homogenates using 0.50 nM (^3 H)-spiperone in the presence of 250 μM ketanserin (to inhibit association with some 5-HT receptors and spirodecanone sites), with non-specific binding defined using 10 μM sulpiride according to known methods. The sigma binding assay was performed on bovine and rat cerebellar homogenates using 2.0 nM (^3 H)-haloperidol in the presence of 25 nM spiperone (to inhibit association with D2 dopamine receptors); non-specific binding was defined in the presence of 1 μM unlabeled haloperidol. […] Sigma receptor assays on rat brain preparations using (^3 H)-DTG and (^3 H)-Pentazocine as the radiolabels are performed with good results. […] Additional assays have been performed for D-1 activity (using (^3 H)-SCH23390), and for α-1 and α-2 activity as well as several 5-HT subtypes (5-HT-1-a, 5-HT-3, 5-HT uptake site).
Crude tissue homogenates are prepared by the following general procedure. Frozen tissue is thawed and homogenized in a buffer containing 50 mM Tris-HCI, 120 mM NaCl, 1 mM MgCl2, and 5 mM KCl, pH 8.0. This tissue suspension is sedimented at 100,000×g for a 30 min. period. Following centrifugation, the supernatant is discarded and the resultant pellet is resuspended in the same buffer solution, and respun as previously described.
Ten to twenty point assays are performed in triplicate using either 4 nM (^3 H)-haloperidol, 4 nM (^3 H)-DTG or 0.4 nM (^3 H)-DTG (New England Nuclear) as radiolabels, on rat liver, rat cerebellar or bovine cerebellar homogenates. The concentration of the displacing agent generally ranges between 0.2 nM and 64 μM in a final volume of 2 mL. Non-specific binding is defined by the presence of 1 μM unlabeled haloperidol. Spiperone at a concentration of 25 nM is added in the assays performed with (^3 H)-haloperidol in order to block D2 receptor sites. The buffer system employed is as in the tissue preparation as presented herein. Incubation is carried out for one hour at room temperature after addition of the tissue. Samples are rapidly filtered through Schleicher and Schuell #32 glass filters presoaked with 0.1% polyethyleneimine, on a 24-position cell harvester (Brandel). The filters are washed with ice-cold 10 mM Tris buffer, pH 7.7, and then placed in 2 mL of scintillation fluid. Radioactivity is counted the following day at 40% efficiency.

sigma receptors [5] = assay: Sigma binding assay, (3H)-haloperidol, bovine cerebellar homogenates; details: bovine cerebellar preparation
Procedure: as §1
(§3) Radioligand binding assays were performed on the tricyclic (cis-cis) hexahydrojulolidine (HHJ), the parent tetracyclic (cis,cis) OHNQ (I-1) and 9-methoxy OHNQ (I-4), for binding to D2 and sigma receptors synthesized according to Example 1. The D2 assays were performed on bovine striatal homogenates using 0.50 nM (^3 H)-spiperone in the presence of 250 μM ketanserin (to inhibit association with some 5-HT receptors and spirodecanone sites), with non-specific binding defined using 10 μM sulpiride according to known methods. The sigma binding assay was performed on bovine and rat cerebellar homogenates using 2.0 nM (^3 H)-haloperidol in the presence of 25 nM spiperone (to inhibit association with D2 dopamine receptors); non-specific binding was defined in the presence of 1 μM unlabeled haloperidol. […] Sigma receptor assays on rat brain preparations using (^3 H)-DTG and (^3 H)-Pentazocine as the radiolabels are performed with good results. […]
(§4) Ten to twenty point assays are performed in triplicate using either 4 nM (^3 H)-haloperidol, 4 nM (^3 H)-DTG or 0.4 nM (^3 H)-DTG (New England Nuclear) as radiolabels, on rat liver, rat cerebellar or bovine cerebellar homogenates. […] Radioactivity is counted the following day at 40% efficiency.

PCP site = details: cited from earlier work
D2 receptor = assay: Dopamine D2 binding assay, (3H)-spiperone, bovine striatal homogenates
Procedure: as §2

5-HT-2 receptor = 5-HT-2 receptor activity assay; assay type: binding
drug-resistant patients = details: human, in vivo; cited from earlier work
dopamine D2 receptor = details: cited from earlier work
sigma receptors [6] = assay: Sigma receptor binding, rat liver preparations
Procedure: as §1, §3, §4

[7] = solubilized rat liver preparations

## C=CCN1CCC2(C)c3cc(O)ccc3CC1C2C (single isomer, unassigned; (+)) [(+)-SKF 10,047]
Sigma receptor; (+)-NANM versus (-)-NANM
  enantioselectivity for sigma sites (in words): more potent than (-)-NANM
sham-feeding rat [1]
  mean lick cluster size (in words): not SKF or HAL
  interlick intervals (in words): not SKF or HAL
sham-feeding rat [2]
  effect on volume of sucrose solution ingested (in words): no effect

## CCCN1CCCC(c2cccc(O)c2)C1 (stereo not drawn) [3-PPP]
[3]
  affinity for sigma versus dopaminergic receptors (in words): higher affinity for sigma receptor sites than for dopaminergic receptors

## COc1ccc2c(c1)C1CCCN3CCCC(C2)C13 (stereo not drawn) [11-methoxy OHNQ]
Sigma receptors [4]; rat cerebellar membranes
  sigma potency compared with reference compounds (in words): on the order of that observed for (+)-NaMM, (+)-3-PPP, as well as cis-fused tricyclic octahydrobenzo-(f) quinolines with hydroxyl groups on the aromatic ring
Sigma receptors [4]; rat cerebellar membranes, 2.0 nM (3H)-haloperidol, 25 nM spiperone
  IC50: 0.3 µM
Sigma receptors [4]
  binding to sigma sites (in words): considerably stronger binding
Sigma receptors [4]; rat cerebellar vs bovine cerebellar receptors
  sigma binding, rat versus bovine (in words): bound more specifically and with a higher affinity to rat cerebellar sigma receptors, than to bovine cerebellar receptors
Sigma receptors [5]
  binding to sigma sites (in words): weak sigma binding
Sigma receptors [5]; 2.0 nM (3H)-haloperidol, 25 nM spiperone
  IC50: 1.5 µM

## CCCN1CCC[C@H](c2cccc(O)c2)C1 [(+)-(^3 H)-3-PPP, (+)-(^3 H)-3-(+)-3-(3-hydroxyphenyl) N-(1-propyl)piperidine]
Sigma receptor
  affinity for sigma receptors (in words): labeled with high affinity

## C=CCN1CCC2(C)c3cc(O)ccc3CC1C2C (stereo not drawn) [(^3 H)-NANM, N-allylnormetazocine]
PCP site
  affinity toward PCP sites (in words): low affinity
Sigma receptor
  affinity for sigma receptors (in words): high affinity

## c1ccc(C2(N3CCCCC3)CCCCC2)cc1 [(^3 H)-PCP, phencyclidine]
Sigma receptor
  affinity for sigma receptors (in words): not labeled

## c1csc(C2(N3CCCCC3)CCCCC2)c1 [(^3 H)-TCP, (^3 H)-1-((2-thienyl)cyclohexyl)piperidine]
Sigma receptor
  affinity for sigma receptors (in words): not labeled

## COc1ccc2c(c1)C1CCCN3CCCC(C2)C13 (stereo not drawn) [(trans,trans) 11-methoxy OHNQ]
D2 receptor
  activity at D-2 receptor sites (in words): modest but selective activity
5-HT-2 receptor
  activity at 5-HT-2 receptor sites (in words): modest but selective activity

## Cl.N#Cc1cccnc1N1CCN(CCCCN2C(=O)SC3(CCCC3)C2=O)CC1 [BMY 13980]
Sigma receptor
  affinity for sigma receptors (in words): moderate to high affinity

## OC(CCCN1CCN(c2ncc(F)cn2)CC1)c1ccc(F)cc1 (stereo not drawn) [BMY 14802]
PCP site
  affinity toward PCP sites (in words): little or no affinity
Sigma receptor
  affinity for sigma receptors (in words): moderate to high affinity
sham-feeding rat [1]
  mean lick cluster size (in words): smaller mean lick cluster size
  interlick intervals (in words): significant decrease of interlick intervals
[3]
  selectivity for sigma versus dopamine D2 receptors: 10 to 15 fold
sham-feeding rat [2]
  effect on volume of sucrose solution ingested (in words): no effect

## C1CC2CCCN3CCCC(C1)C23 (stereo not drawn) [HHJ, hexahydrojulolidine]
Sigma receptors [4]
  binding to sigma sites (in words): did not exhibit binding
Sigma receptors [5]
  binding to sigma sites (in words): did not exhibit binding

## Cl.Fc1ccc2[nH]c3c(c2c1)CN(CCCc1cccnc1)CC3 [WY 47,384]
Sigma receptor
  affinity for sigma receptors (in words): moderate to high affinity

## O=C1CC2(CCCC2)CC(=O)N1CCCCN1CCN(c2ncccn2)CC1 [buspirone]
Sigma receptor
  affinity for sigma receptors (in words): high affinity

## CN1CCN(C2=Nc3cc(Cl)ccc3Nc3ccccc32)CC1 [clozapine]
drug-resistant patients
  agranulocytosis / side effects (in words): irreversible, potentially fatal agranulocytosis in a minority of patients; also recorded: less motor side effects; also recorded: severe and fatal agranulocytosis

## O=C(CCCN1CCC(O)(c2ccc(Cl)cc2)CC1)c1ccc(F)cc1 [haloperidol]
Sigma receptor
  affinity for sigma receptors (in words): high affinity
Sigma receptor; listed as (^3 H)-haloperidol
  affinity for sigma receptors (in words): labeled with high affinity
Sigma receptor; listed as Haloperidol
  affinity for sigma receptors (in words): very high affinity
sham-feeding rat [1]
  mean lick cluster size (in words): not SKF or HAL
  interlick intervals (in words): not SKF or HAL
Dopamine D2 receptor
  activity at dopamine D2 receptor (in words): high affinity
sham-feeding rat [2]
  effect on volume of sucrose solution ingested (in words): highly significant reduction
sham-feeding rat [2]; haloperidol 0.1 mg/kg, i.p., vs 33.7±2.7 ml, p<0.001
  sham intake of the sucrose solution: 15 ± 2.7 mL

## C=CCN1CC[C@]23c4c5ccc(O)c4O[C@H]2C(=O)CC[C@@]3(O)[C@H]1C5 [naloxone]
Sigma receptor; typical opiate receptor antagonists
  block of (3H)-NANM binding (in words): not blocked

## CCN1CCC[C@H]1CNC(=O)c1c(OC)ccc(Br)c1OC [remoxipride]
PCP site
  affinity toward PCP sites (in words): little or no affinity
Sigma receptor
  affinity for sigma receptors (in words): moderate to high affinity

## C[C@@H]1CN(CCCn2c3ccccc3c3ccccc32)C[C@H](C)N1 [rimcazole]
PCP site
  affinity toward PCP sites (in words): little or no affinity
Sigma receptor
  affinity for sigma receptors (in words): moderate to high affinity
[3]
  selectivity for sigma versus dopamine D2 receptors: 10 to 15 fold

## O=C(CCCN1CCC2(CC1)C(=O)NCN2c1ccccc1)c1ccc(F)cc1 [spiperone]
Sigma receptor
  affinity for sigma receptors (in words): not spiperone

## O=C1CC2(CCCC2)CC(=O)N1CCCCN1CCN(c2nsc3ccccc23)CC1 [tiospirone]
Sigma receptor
  affinity for sigma receptors (in words): moderate to high affinity

## c1ccc2c(c1)CC1CCCN3CCCC2C13 (stereo not drawn) [unsubstituted (trans,trans) OHNQ]
D2 receptor
  activity at D-2 receptor sites (in words): modest but selective activity
Sigma receptors [6]; crude liver homogenates
  IC50: 0.157 µM
Sigma receptors [6]; [7]
  IC50: 0.087 µM
  affinity to sigma receptors (in words): high affinity
5-HT-2 receptor
  activity at 5-HT-2 receptor sites (in words): modest but selective activity
